Reference: ChEMBL document CHEMBL1142974, “Design, synthesis, and evaluation of the antiproliferative activity of a series of novel fused xanthenone aminoderivatives in human breast cancer cells” (J Med Chem, 2007)
Active and inactive are the calls of the source. The rule behind the calls is not given here.

Test system: MDA-MB-231
Test: Antiproliferative activity against human MDA-MB-231 cells by WST-1 method after 72 hrs
Type: functional, cell-based
Settings: MDA-MB-231, 72 h

| SMILES | IC50 [µM] |
| --- | --- |
| CCN(CC)CCn1nc2c3c(c4[nH]c(C)nc4cc31)Oc1ccccc1-2 | 18 |
| Cc1nc2cc3c4c(nn3CCN(C)C)-c3ccccc3Oc4c2[nH]1 | 17 |

More lines, now with the values ahead:

| IC50 [µM] | SMILES |
| --- | --- |
| 8.5 | CCN(CC)CCn1nc2c3c(c4[nH]cnc4cc31)Oc1ccccc1-2 |
| 6.5 | CN(C)CCn1nc2c3c(c4[nH]cnc4cc31)Oc1ccccc1-2 |

Test system: MDA-MB-231
Test: Growth inhibition of human MDA-MB-231 cells at 100 uM by WST-1 method after 72 hrs
Type: functional, cell-based
Settings: not given

| SMILES | Activity |
| --- | --- |
| CCN(CC)CCNc1cc2nc[nH]c2c2oc3ccccc3c(=O)c12 | Active |
| CN(C)CCNc1cc2nc[nH]c2c2oc3ccccc3c(=O)c12 | Active |
